Results taken from patent US12404289B2 (Gilead Sciences, Inc., priority 2020, dated 2025).
Read-outs that look alike come from different tables or passages of the source.

Experiments:
Assay type in all cases: cell-based
[1] = tested on: Respiratory syncytial virus recombinant with luciferase (RSV-Luc5); test: microbe, parasite or virus in culture
SARS-CoV-2 = SARS-CoV-2 antiviral assay (A549-hACE2, Nano luciferase); conditions: A549-hACE2 cells, SARS-CoV2-Nano, MOI 0.025, 48 h, Table 4, read-out: EC50 SARS CoV2
[2] = tested on: Recombinant respiratory syncytial virus expressing the firefly luciferase protein (RSV-Fluc); test: microbe, parasite or virus in culture; conditions: Table 4
[3] = tested on: Respiratory syncytial virus (RSV) strain A2; test: Hep-2 RSV2 384-well assay (EC50-HEP2-384); conditions: HEp-2 cells, RSV A2, MOI=4, 4 days
[4] = tested on: Respiratory syncytial virus (RSV) strain A2; test: RSV antiviral assay (HEp-2, 96 well); conditions: Table 3
[5] = Severe acute respiratory syndrome coronavirus 2, 48 h
[6] = human respiratory syncytial virus, NHBE, 72 h, read-out: EC50 RSVFluc NHBE 96, NHBE cells, RSV-Fluc, MOI of 0.1, three days, 96 well
[7] = read-out: EC50 RSVFluc NHBE 96, NHBE cells, RSV-Fluc, MOI of 0.1, three days, 96 well
[8] = human respiratory syncytial virus, HEp-2, 72 h, read-out: EC50 RSVFluc-Hep2 384, HEp-2 cells, RSV-Luc5, MOI=0.5, 3 days, 384 well, Table 3
[9] = read-out: EC50 RSVFluc-Hep2 384, HEp-2 cells, RSV-Luc5, MOI=0.5, 3 days, 384 well, Table 3
[10] = read-out: EC50 RSV HEP2 96, HEp-2 cells, RSV A2, MOI=4, 4 days, 96 well
[11] = human respiratory syncytial virus, HEp-2, 96 h, Table 3

SMILES: CCC(CC)COC(=O)[C@H](C)NP(=O)(OC[C@H]1O[C@@](C#N)(c2ccc3c(N)ncnn23)[C@H](O)[C@@H]1O)Oc1ccc(C(C)(C)C)cc1 (single isomer, unassigned) [Example 13a]
- EC50 ([1]; human respiratory syncytial virus, HEp-2, 72 h, read-out: EC50 RSVFluc-Hep2 384, HEp-2 cells, RSV-Luc5, MOI=0.5, 3 days, 384 well, One-Glo, Table 1): 52.1 nM
- EC50 (SARS-CoV-2; [5]): 181 nM
- EC50 [2, 6]: 5.92 nM
- EC50 ([3]; Table 1): 91.2 nM

SMILES: CCC(CC)COC(=O)[C@H](C)NP(=O)(OC[C@H]1O[C@@](C#N)(c2ccc3c(N)ncnn23)[C@H](O)[C@@H]1O)Oc1ccc(C(C)(C)C)cc1 (single isomer, unassigned) [Example 13b]
- EC50 ([1]; read-out: EC50 RSVFluc-Hep2 384, HEp-2 cells, RSV-Luc5, MOI=0.5, 3 days, 384 well, One-Glo, Table 1): 26.7 nM
- EC50 (SARS-CoV-2): 174 nM
- EC50 [2, 7]: 6.86 nM
- EC50 ([3]; Table 1): 33.4 nM

SMILES: C[C@H](NP(=O)(OC[C@H]1O[C@@](C#N)(c2ccc3c(N)ncnn23)[C@H](O)[C@@H]1O)Oc1ccccc1)C(=O)OC1CC2(CCC2)C1 (single isomer, unassigned) [Example 44a]
- EC50 [1, 8]: 21.7 nM
- EC50 (SARS-CoV-2; [5]): 102 nM
- EC50 [2, 6]: 9.13 nM

SMILES: C[C@H](NP(=O)(OC[C@H]1O[C@@](C#N)(c2ccc3c(N)ncnn23)[C@H](O)[C@@H]1O)Oc1ccccc1)C(=O)OC1CC2(CCC2)C1 (single isomer, unassigned) [Example 44b]
- EC50 [1, 9]: 22.9 nM
- EC50 (SARS-CoV-2): 130 nM
- EC50 [2, 7]: 12.4 nM

SMILES: CC(=O)O[C@H]1[C@@H](OC(C)=O)[C@](C#N)(c2ccc3c(N)ncnn23)O[C@@H]1COP(=O)(N[C@@H](C)C(=O)OC1CC2(CCC2)C1)Oc1ccccc1 (single isomer, unassigned) [Example 45a]
- EC50 [1, 9]: 22.7 nM
- EC50 (SARS-CoV-2; [5]): 72.8 nM
- EC50 [2, 6]: 7.29 nM
- EC50 ([3]; Table 3): 60.4 nM

SMILES: CC(=O)O[C@H]1[C@@H](OC(C)=O)[C@](C#N)(c2ccc3c(N)ncnn23)O[C@@H]1COP(=O)(N[C@@H](C)C(=O)OC1CC2(CCC2)C1)Oc1ccccc1 (single isomer, unassigned) [Example 45b]
- EC50 [1, 9]: 6.87 nM
- EC50 (SARS-CoV-2): 56.9 nM
- EC50 [2, 7]: 10.3 nM
- EC50 ([3]; Table 3): 23.9 nM

SMILES: CC(C)C(=O)O[C@H]1[C@@H](OC(=O)C(C)C)[C@](C#N)(c2ccc3c(N)ncnn23)O[C@@H]1COP(=O)(N[C@@H](C)C(=O)OC1CC2(CCC2)C1)Oc1ccccc1 (single isomer, unassigned) [Example 46a]
- EC50 [1, 8]: 30.2 nM
- EC50 (SARS-CoV-2; [5]): 249 nM
- EC50 [2, 6]: 5.59 nM

SMILES: CC(C)C(=O)O[C@H]1[C@@H](OC(=O)C(C)C)[C@](C#N)(c2ccc3c(N)ncnn23)O[C@@H]1COP(=O)(N[C@@H](C)C(=O)OC1CC2(CCC2)C1)Oc1ccccc1 (single isomer, unassigned) [Example 46b]
- EC50 [1, 9]: 30 nM
- EC50 (SARS-CoV-2): 400 nM
- EC50 [2, 7]: 6.63 nM

SMILES: CCC(=O)O[C@H]1[C@@H](OC(=O)CC)[C@](C#N)(c2ccc3c(N)ncnn23)O[C@@H]1COP(=O)(N[C@@H](C)C(=O)OCC(CC)CC)Oc1cccc2ccccc12 (single isomer, unassigned) [Example 79b]
- EC50 [1, 8]: 45.6 nM
- EC50 (SARS-CoV-2): 27.8 nM
- EC50 [2, 6]: 6.33 nM
- EC50 [4, 10]: 21.6 nM

SMILES: CC(=O)O[C@H]1[C@@H](OC(C)=O)[C@](C#N)(c2ccc3c(N)ncnn23)O[C@@H]1COP(=O)(N[C@@H](C)C(=O)OC1CC2(CCC2)C1)Oc1cccc2ccccc12 (single isomer, unassigned) [Example 83a]
- EC50 [1, 8]: 32.8 nM
- EC50 (SARS-CoV-2; [5]): 49 nM
- EC50 [2, 6]: 6.98 nM
- EC50 [4, 10]: 21.9 nM

SMILES: CC(C)C(=O)O[C@H]1[C@@H](OC(=O)C(C)C)[C@](C#N)(c2ccc3c(N)ncnn23)O[C@@H]1COP(=O)(N[C@@H](C)C(=O)OC1CC2(CCC2)C1)Oc1cccc2ccccc12 (single isomer, unassigned) [Example 86a]
- EC50 [1, 9]: 88.2 nM
- EC50 (SARS-CoV-2): 109 nM
- EC50 [2, 6]: 7.93 nM
- EC50 ([4]; human respiratory syncytial virus, HEp-2, 96 h, read-out: EC50 RSV HEP2 96, HEp-2 cells, RSV A2, MOI=4, 4 days, 96 well): 21.6 nM

SMILES: CC(C)C(=O)O[C@H]1[C@@H](OC(=O)C(C)C)[C@](C#N)(c2ccc3c(N)ncnn23)O[C@@H]1COP(=O)(N[C@@H](C)C(=O)OC1CC2(CCC2)C1)Oc1cccc2ccccc12 (single isomer, unassigned) [Example 86b]
- EC50 [1, 9]: 28.3 nM
- EC50 (SARS-CoV-2): 23.6 nM
- EC50 [2, 7]: 9.46 nM
- EC50 [4, 10]: 20.9 nM

SMILES: CC(=O)O[C@H]1[C@@H](OC(C)=O)[C@](C#N)(c2ccc3c(N)ncnn23)O[C@@H]1COP(=O)(N[C@@H](C)C(=O)OC1CC(C)(C)C1)Oc1ccc(C(C)(C)C)cc1 (single isomer, unassigned) [Example 96a]
- EC50 [1, 8]: 21.2 nM
- EC50 (SARS-CoV-2; [5]): 198 nM
- EC50 [2, 7]: 8.53 nM
- EC50 [3, 11]: 26.5 nM

SMILES: CC(=O)O[C@H]1[C@@H](OC(C)=O)[C@](C#N)(c2ccc3c(N)ncnn23)O[C@@H]1COP(=O)(N[C@@H](C)C(=O)OC1CC(C)(C)C1)Oc1ccc(C(C)(C)C)cc1 (single isomer, unassigned) [Example 96b]
- EC50 [1, 9]: 22.5 nM
- EC50 (SARS-CoV-2): 276 nM
- EC50 [2, 7]: 25.1 nM
- EC50 ([3]; Table 3): 27.9 nM

SMILES: CC(=O)O[C@H]1[C@@H](OC(C)=O)[C@](C#N)(c2ccc3c(N)ncnn23)O[C@@H]1COP(=O)(N[C@@H](C)C(=O)OCC1CC1)Oc1ccc(C(C)(C)C)cc1 (single isomer, unassigned) [Example 102a]
- EC50 [1, 9]: 8.68 nM
- EC50 (SARS-CoV-2; [5]): 155 nM
- EC50 [2, 6]: 8.46 nM
- EC50 [3, 11]: 32 nM

SMILES: CC(=O)O[C@H]1[C@@H](OC(C)=O)[C@](C#N)(c2ccc3c(N)ncnn23)O[C@@H]1COP(=O)(N[C@@H](C)C(=O)OCC1CC1)Oc1ccc(C(C)(C)C)cc1 (single isomer, unassigned) [Example 102b]
- EC50 [1, 9]: 26 nM
- EC50 (SARS-CoV-2): 86 nM
- EC50 ([3]; Table 3): 43 nM

SMILES: C[C@H](NP(=O)(OC[C@H]1O[C@@](C#N)(c2ccc3c(N)ncnn23)[C@H](O)[C@@H]1O)Oc1ccccc1)C(=O)OC1CC2(CCC2)C1 (stereo partly drawn) [Example 44, spiro[3.3]heptan-2-yl ((((2R,3S,4R,5R)-5-(4-aminopyrrolo[2,1-f][1,2,4]triazin-7-yl)-5-cyano-3,4-dihydroxytetrahydrofuran-2-yl)methoxy)(phenoxy)phosphoryl)-L-alaninate]
- EC50 [1, 8]: 18.3 nM
- EC50 (SARS-CoV-2; [5]): 104 nM
- EC50 [2, 6]: 9.47 nM
- EC50 [3, 11]: 56 nM

SMILES: CC(C)C(=O)O[C@H]1[C@@H](OC(=O)C(C)C)[C@](C#N)(c2ccc3c(N)ncnn23)O[C@@H]1COP(=O)(N[C@@H](C)C(=O)OCC1CC1)Oc1ccc(C(C)(C)C)cc1 (stereo partly drawn) [Example 104b, (2R,3R,4R,5R)-2-(4-aminopyrrolo[2,1-f][1,2,4]triazin-7-yl)-5-((((4-(tert-butyl)phenoxy)(((S)-1-(cyclopropylmethoxy)-1-oxopropan-2-yl)amino)phosphoryl)oxy)methyl)-2-cyanotetrahydrofuran-3,4-diyl bis(2-methylpropanoate)]
- EC50 [1, 8]: 22.8 nM
- EC50 (SARS-CoV-2): 294 nM
- EC50 ([3]; Table 3): 57.8 nM

SMILES: C[C@H](NP(=O)(OC[C@H]1O[C@@](C#N)(c2ccc3c(=N)n(COP(=O)(O)O)cnn23)[C@H](O)[C@@H]1O)Oc1cccc2ccccc12)C(=O)OC1CC2(CCC2)C1 (stereo partly drawn) [Example 177, spiro[3.3]heptan-2-yl ((((2R,3S,4R,5R)-5-cyano-3,4-dihydroxy-5-(4-imino-3-((phosphonooxy)methyl)-3,4-dihydropyrrolo[2,1-f][1,2,4]triazin-7-yl)tetrahydrofuran-2-yl)methoxy)(naphthalen-1-yloxy)phosphoryl)-L-alaninate]
- EC50 [1, 8]: 17 nM
- EC50 (SARS-CoV-2; [5]): 410 nM
- EC50 [2, 6]: 16 nM

SMILES: CC(C)C(=O)O[C@H]1[C@@H](OC(=O)C(C)C)[C@](C#N)(c2ccc3c(=N)n(COP(=O)(O)O)cnn23)O[C@@H]1COP(=O)(N[C@@H](C)C(=O)OC1CC2(CCC2)C1)Oc1cccc2ccccc12 (stereo partly drawn) [Example 178, (2R,3R,4R,5R)-2-cyano-2-(4-imino-3-((phosphonooxy)methyl)-3,4-dihydropyrrolo[2,1-f][1,2,4]triazin-7-yl)-5-((((naphthalen-1-yloxy)(((S)-1-oxo-1-(spiro[3.3]heptan-2-yloxy)propan-2-yl)amino)phosphoryl)oxy)methyl)tetrahydrofuran-3,4-diyl bis(2-methylpropanoate)]
- EC50 [1, 8]: 85 nM
- EC50 (SARS-CoV-2; [5]): 1370 nM
- EC50 [2, 6]: 12.2 nM

SMILES: CCC(CC)COC(=O)[C@H](C)NP(=O)(OC[C@H]1O[C@@](C#N)(c2ccc3c(=N)n(COP(=O)(O)O)cnn23)[C@H](O)[C@@H]1O)Oc1ccc(C(C)(C)C)cc1 (stereo partly drawn) [Example 179, 2-ethylbutyl ((4-(tert-butyl)phenoxy)(((2R,3S,4R,5R)-5-cyano-3,4-dihydroxy-5-(4-imino-3-((phosphonooxy)methyl)-3,4-dihydropyrrolo[2,1-f][1,2,4]triazin-7-yl)tetrahydrofuran-2-yl)methoxy)phosphoryl)-L-alaninate]
- EC50 [1, 8]: 16.8 nM
- EC50 (SARS-CoV-2; [5]): 850 nM
- EC50 [2, 6]: 7.84 nM
